Measurements reported in US10676504B2 (Colorado State University Research Foundation, priority 2015, dated 2020).
Where two headings read alike, the source gives them in different places. One block for each molecule: values may come before it.

Columns and labels:
[1] = test system: 797 NUT midline carcinoma cell line; experiment: 797 cell viability (ATPLite); format: cell-based; conditions: Table P2; 48 hours incubation
Protocol: (§1) Addition of compound was performed with a JANUS Workstation (PerkinElmer Life and Analytical Sciences) using a 384-well pinhead tool that is calibrated to deliver 100 nL drug/well. After 48 hours of incubation with compound, cells were analyzed for cell viability using the ATPLite (Perkin Elmer) luminescent assay kit per the manufacturer's instructions. […] Replicate measurements were analyzed with respect to dose and estimates of IC50 were calculated by logistic regression (GraphPad Prism).

HDACs 1-3 = experiment: HDAC biochemical assay of P5-P12, summary statements
HDAC8 = molecular target: T1, HDAC8 (Homo sapiens, UniProt Q9BY41); experiment: HDAC biochemical assay of P5-P12 (Table P1); parameters: The recombinant, full-length HDAC protein (BPS Biosciences) was incubated; purchased BPS Biosciences; conditions: Table P1
T1 sequence (Q9BY41 1-377): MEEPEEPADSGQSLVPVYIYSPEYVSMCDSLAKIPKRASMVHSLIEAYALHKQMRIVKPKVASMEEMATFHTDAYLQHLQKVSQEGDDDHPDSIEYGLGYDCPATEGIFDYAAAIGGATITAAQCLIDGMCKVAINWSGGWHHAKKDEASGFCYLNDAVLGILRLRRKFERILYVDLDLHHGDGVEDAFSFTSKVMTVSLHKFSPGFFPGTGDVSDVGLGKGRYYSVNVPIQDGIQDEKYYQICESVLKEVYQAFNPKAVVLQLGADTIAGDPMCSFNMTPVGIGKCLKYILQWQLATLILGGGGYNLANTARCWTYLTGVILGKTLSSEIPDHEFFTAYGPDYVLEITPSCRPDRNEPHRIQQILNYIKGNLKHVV

[2] = test system: 10326 NUT midline carcinoma cell line; experiment: 10326 cell viability (ATPLite); format: cell-based; conditions: Table P2; 48 hours incubation
Protocol: as §1

HDAC3 = molecular target: T2, HDAC3 (Homo sapiens, UniProt O15379); experiment: HDAC biochemical assay of P5-P12 (Table P1); conditions: Table P1
T2 construct: The recombinant, full-length HDAC protein (BPS Biosciences) was incubated; purchased BPS Biosciences
T2 sequence (O15379 whole entry): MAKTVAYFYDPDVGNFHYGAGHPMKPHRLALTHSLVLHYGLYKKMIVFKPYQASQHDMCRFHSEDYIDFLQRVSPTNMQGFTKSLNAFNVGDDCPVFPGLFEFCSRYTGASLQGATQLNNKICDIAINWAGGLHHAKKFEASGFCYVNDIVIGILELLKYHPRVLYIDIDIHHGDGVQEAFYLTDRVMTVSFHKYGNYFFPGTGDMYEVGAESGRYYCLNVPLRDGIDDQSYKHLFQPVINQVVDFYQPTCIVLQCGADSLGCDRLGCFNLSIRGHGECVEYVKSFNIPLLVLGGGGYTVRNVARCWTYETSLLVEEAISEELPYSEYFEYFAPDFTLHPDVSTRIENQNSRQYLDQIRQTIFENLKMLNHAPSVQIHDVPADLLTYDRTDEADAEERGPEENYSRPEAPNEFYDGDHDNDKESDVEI
T2 sequence (Q9Y618 395-489 partner limits assumed): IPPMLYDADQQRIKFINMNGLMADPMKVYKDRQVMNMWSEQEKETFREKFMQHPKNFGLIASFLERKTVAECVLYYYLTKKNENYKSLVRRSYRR

HDAC6 = molecular target: T3, HDAC6 (Homo sapiens, UniProt Q9UBN7); experiment: HDAC biochemical assay of P5-P12 (Table P1); parameters: The recombinant, full-length HDAC protein (BPS Biosciences) was incubated; purchased BPS Biosciences; conditions: 200 μM TCEP
T3 sequence (Q9UBN7 1-1215): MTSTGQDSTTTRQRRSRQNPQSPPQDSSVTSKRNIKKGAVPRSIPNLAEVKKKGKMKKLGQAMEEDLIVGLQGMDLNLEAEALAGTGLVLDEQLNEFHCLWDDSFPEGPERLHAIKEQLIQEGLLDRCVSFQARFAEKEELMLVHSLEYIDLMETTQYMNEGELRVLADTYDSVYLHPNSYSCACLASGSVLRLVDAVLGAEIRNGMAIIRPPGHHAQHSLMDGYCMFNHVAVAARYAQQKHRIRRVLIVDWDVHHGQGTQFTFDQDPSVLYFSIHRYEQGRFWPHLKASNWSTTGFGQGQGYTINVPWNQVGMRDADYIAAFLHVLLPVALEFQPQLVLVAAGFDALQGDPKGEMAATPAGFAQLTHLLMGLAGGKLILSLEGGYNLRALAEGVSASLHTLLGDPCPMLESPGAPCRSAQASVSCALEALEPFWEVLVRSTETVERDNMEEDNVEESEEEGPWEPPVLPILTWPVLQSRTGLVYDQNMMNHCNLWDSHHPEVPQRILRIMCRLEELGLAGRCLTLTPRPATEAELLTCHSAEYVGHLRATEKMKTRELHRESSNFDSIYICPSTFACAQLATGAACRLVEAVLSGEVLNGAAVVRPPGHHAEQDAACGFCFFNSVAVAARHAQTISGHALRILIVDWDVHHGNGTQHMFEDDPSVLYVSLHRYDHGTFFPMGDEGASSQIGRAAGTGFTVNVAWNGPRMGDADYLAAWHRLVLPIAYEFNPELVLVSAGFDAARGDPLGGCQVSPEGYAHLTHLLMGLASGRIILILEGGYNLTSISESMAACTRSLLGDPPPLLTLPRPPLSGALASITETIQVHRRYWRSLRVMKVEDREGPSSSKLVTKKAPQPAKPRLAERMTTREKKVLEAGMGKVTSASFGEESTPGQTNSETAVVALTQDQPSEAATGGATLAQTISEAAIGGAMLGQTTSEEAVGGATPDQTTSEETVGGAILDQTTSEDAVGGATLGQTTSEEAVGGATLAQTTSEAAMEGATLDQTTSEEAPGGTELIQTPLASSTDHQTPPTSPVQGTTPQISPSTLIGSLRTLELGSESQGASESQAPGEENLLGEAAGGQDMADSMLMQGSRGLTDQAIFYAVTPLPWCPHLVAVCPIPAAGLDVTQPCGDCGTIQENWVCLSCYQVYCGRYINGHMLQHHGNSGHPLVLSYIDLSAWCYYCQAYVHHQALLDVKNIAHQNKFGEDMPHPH

HDAC2 = HDAC2 (Homo sapiens, UniProt Q92769); experiment: HDAC biochemical assay of P5-P12 (Table P1); parameters: The recombinant, full-length HDAC protein (BPS Biosciences) was incubated; purchased BPS Biosciences; conditions: Table P1
HDAC2, sequence (Q92769 whole entry): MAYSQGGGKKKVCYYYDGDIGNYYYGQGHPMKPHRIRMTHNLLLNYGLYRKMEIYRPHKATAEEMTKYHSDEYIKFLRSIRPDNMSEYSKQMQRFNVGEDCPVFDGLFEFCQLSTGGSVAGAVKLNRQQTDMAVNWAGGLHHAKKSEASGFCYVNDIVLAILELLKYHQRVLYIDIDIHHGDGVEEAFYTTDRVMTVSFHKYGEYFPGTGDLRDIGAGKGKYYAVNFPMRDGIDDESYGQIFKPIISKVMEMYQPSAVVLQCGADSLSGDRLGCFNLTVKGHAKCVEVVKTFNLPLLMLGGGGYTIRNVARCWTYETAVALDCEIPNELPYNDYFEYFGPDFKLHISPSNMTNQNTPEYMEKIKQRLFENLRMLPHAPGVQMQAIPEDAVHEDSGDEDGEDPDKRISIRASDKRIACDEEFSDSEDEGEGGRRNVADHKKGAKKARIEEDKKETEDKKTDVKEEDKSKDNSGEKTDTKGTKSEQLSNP

HDAC1 = HDAC1 (Homo sapiens, UniProt Q13547); experiment: HDAC biochemical assay of P5-P12 (Table P1); parameters: The recombinant, full-length HDAC protein (BPS Biosciences) was incubated; purchased BPS Biosciences; conditions: Table P1
HDAC1, sequence (Q13547 whole entry, canonical isoform): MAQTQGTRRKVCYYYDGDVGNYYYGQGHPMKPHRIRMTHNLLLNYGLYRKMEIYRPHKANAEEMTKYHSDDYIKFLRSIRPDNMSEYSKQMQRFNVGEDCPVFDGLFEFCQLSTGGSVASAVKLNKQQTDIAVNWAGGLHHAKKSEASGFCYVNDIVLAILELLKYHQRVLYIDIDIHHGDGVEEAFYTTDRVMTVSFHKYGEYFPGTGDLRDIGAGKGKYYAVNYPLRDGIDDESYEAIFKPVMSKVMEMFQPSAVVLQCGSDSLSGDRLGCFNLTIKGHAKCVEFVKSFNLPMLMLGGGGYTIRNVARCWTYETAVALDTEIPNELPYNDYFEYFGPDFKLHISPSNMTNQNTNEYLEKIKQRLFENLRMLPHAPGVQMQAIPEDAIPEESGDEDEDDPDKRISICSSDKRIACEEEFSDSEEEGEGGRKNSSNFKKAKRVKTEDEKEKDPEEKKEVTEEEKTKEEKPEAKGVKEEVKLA

human HDACs = experiment: HDAC biochemical assay (Example 16), summary statements over isoforms; conditions: all isoforms tested
Protocol: The inhibitory effect of compounds on deacetylase isoenzyme function was determined in vitro using an optimized homogenous assay performed in 384-well plate format. […] Data are analyzed on a plate-by-plate basis for the linear range of fluorescence over time. Data from the plate capture corresponding to the mid-linear range is imported into analytical software and annotated with well identity and compound concentration (Spotfire DecisionSite). Replicate experimental data from incubations with inhibitor are normalized to control, solvent-only wells and IC-50 is determined by logistic regression.
Thus, small-molecule inhibitors were arrayed at twelve-point dose-response (3-fold increments) in 384-well library plates and transferred by robotic pin device to replicate assay plates containing assay buffer under reducing conditions (TCEP 200 μM). A liquid handling device then transferred a tripeptide substrate terminating in acetyl-lysine and amide conjugated to 4-methyl-7-aminocoumarin (AMC), recombinant human histone deacetylase (BPS Bioscience, San Diego, Calif.), and recombinant human trypsin (Sigma-Aldrich, St. Louis, Mo.). […] Kinetic (fluorescence per unit time) and end-point (total fluorescence) data were captured by a multilabel plate reader. Replicate data were analyzed by curve-fit using logistic regression (Spotfire Decision-Site). […]

[3] = the molecule shown is the open-chain precursor, amide bond, 16-membered ring, 3 steps
colon cancer cell lines [4] = conditions: for Percent of Cell Lines Impacted (%), LC50, Colon: five-dose
Text: (§2) All compounds submitted for screening were initially tested at a single high dose (10^-5 M) against the fill NCI 60 cell panel. Only compounds which satisfied pre-determined threshold inhibition criteria in a minimum number of cell lines progressed to a second round of testing utilizing a more comprehensive 5-dose inhibition assay. The threshold inhibition criteria for progression to the 5-dose assays were selected to efficiently capture compounds with anti-proliferative activity based on historical DTP screening data.
(§3) Concentrations for G150, IC50, TGI, and LC50 were calculated for all cell lines tested, and heat plots were prepared.

melanoma cell lines [5] = experiment: cells; conditions: read-out: Average Concentration (M), LC50, Melanoma
Text: as §2, §3

NCI-60 cancer cell lines [6] = experiment: cells
Text: as §2, §3

melanoma cell lines [7] = conditions: for Percent of Cell Lines Impacted (%), LC50, Melanoma: five-dose
Text: as §2, §3

colon cancer cell lines [8] = experiment: cells; conditions: read-out: Average Concentration (M), LC50, Colon
Text: as §2, §3

CNS cancer cell lines [9] = conditions: for Percent of Cell Lines Impacted (%), LC50, CNS: five-dose
Text: as §2, §3

renal cancer cell lines = conditions: for Percent of Cell Lines Impacted (%), LC50, Renal: five-dose
Text: as §2, §3

NCI-60 cancer cell lines [10] = conditions: five-dose; for Percent of Cell Lines Impacted (%), GI50: 50% Growth Inhibition; for Percent of Cell Lines Impacted (%), LC50: 50% Lethal Concentration reached; for Percent of Cell Lines Impacted (%), TGI / Total Impacted Cell Lines (n), TGI: Total Growth Inhibition; for Average Concentration (M), TGI: average over impacted cell lines
Text: as §2, §3

CNS cancer cell lines [11] = experiment: cells; conditions: read-out: Average Concentration (M), LC50, CNS
Text: as §2, §3

[12] = test system: ovarian cancer cell lines
Text: as §2, §3

[13] = read-out: Average Concentration (M), GI50

Compound: CC(C)[C@@H]1NC(=O)[C@]2(C)CSC(=N2)c2cccc(n2)CNC(=O)C[C@@H](/C=C/CCS)OC1=O [Compound P6, Depsipeptide Pyridyl “IN” Thiol]
IC50 [1]: 220 nM
IC50 range in words for HDACs 1-3 (HDACs 1-3): single digit nM range
IC50 (HDAC8): 341 nM
IC50 [2]: 290 nM
IC50 (HDAC3): 3.07 nM
IC50 (HDAC6): 48.5 nM

IC50 [1]: 90 nM
IC50 range in words for HDACs 1-3 (HDACs 1-3): single digit nM range
IC50 (HDAC8): 102 nM
IC50 [2]: 120 nM
IC50 (HDAC2): 4.42 nM
IC50 (HDAC3): 2.31 nM
IC50 (HDAC1): 2.2 nM
IC50 (HDAC6): 35.2 nM
Compound: CC(C)[C@@H]1NC(=O)[C@]2(C)CSC(=N2)c2ccnc(c2)CNC(=O)C[C@@H](/C=C/CCS)OC1=O [Compound P8, Depsipeptide Pyridyl “OUT” Thiol]

Compound: CC(C)[C@@H]1NC(=O)[C@]2(C)CSC(=N2)c2ccnc(c2)CNC(=O)C[C@@H](/C=C/CCS)NC1=O [Compound P12, Peptide Isostere Pyridyl “OUT” Thiol]
IC50 range in words for HDACs 1-3 (HDACs 1-3): double-digit nM range
IC50 (HDAC8): 1490 nM
IC50 (HDAC2): 20.8 nM
IC50 (HDAC3): 14.6 nM
IC50 (HDAC1): 13.2 nM
IC50 (HDAC6): 2850 nM

Compound: CC(C)[C@H]1NC(=O)[C@@]2(C)CSC(=N2)c2csc(n2)CNC(=O)C[C@H](/C=C/CCS)OC1=O [Enantiomer (2), (−)-Largazole Thiol]
decrease in potency versus the natural product (human HDACs): three orders of magnitude

Compound: CC(C)[C@@H]1NC(=O)[C@]2(C)CSC(=N2)c2csc(n2)CNC(=O)C[C@@H](/C=C/CCS)NC1=O [Largazole peptide isostere thiol]
IC50 [1]: 1740 nM
IC50 (HDAC8): 255 nM
IC50 [2]: 11900 nM

Compound: COC(=O)C[C@@H](/C=C/CCSC(c1ccccc1)(c1ccccc1)c1ccccc1)NC(=O)[C@@H](NC(=O)[C@]1(C)CSC(c2cccc(CNC(=O)OC(C)(C)C)n2)=N1)C(C)C [Trityl Protected Peptide Isostere Pyridyl “IN” Macrocycle]
ring closure, isolated yield [3]: 33%

Compound: COC(=O)C[C@@H](/C=C/CCSC(c1ccccc1)(c1ccccc1)c1ccccc1)NC(=O)[C@@H](NC(=O)[C@]1(C)CSC(c2ccnc(CNC(=O)OC(C)(C)C)c2)=N1)C(C)C [Trityl Protected Peptide Isostere Pyridyl “OUT” Macrocycle]
ring closure, isolated yield ([3]; HATU/HOBt/DIEA, MeCN, 0.97 mM, […]): 32%

Compound: CCCCCCCC(=O)SCC/C=C/[C@@H]1CC(=O)NCc2cc(ccn2)C2=N[C@@](C)(CS2)C(=O)N[C@@H](C(C)C)C(=O)O1 [compound of formula A]
Total Impacted Cell Lines (n), LC50, Colon (colon cancer cell lines [4]): 3
Percent of Cell Lines Impacted (%), LC50, Colon (colon cancer cell lines [4]): 43%
CC50 (melanoma cell lines [5]): 2.02e-07 M
GI50 (NCI-60 cancer cell lines [6]; [13]): 3.29e-08 M
GI50 (NCI-60 cancer cell lines [6]; read-out: GI50 concentrations (M), order of magnitude): 1e-08 M
Total Impacted Cell Lines (n), LC50, Melanoma (melanoma cell lines [7]): 3
Percent of Cell Lines Impacted (%), LC50, Melanoma (melanoma cell lines [7]): 38%
CC50 (colon cancer cell lines [8]): 1.48e-06 M
Total Impacted Cell Lines (n), LC50, CNS (CNS cancer cell lines [9]): 1
Percent of Cell Lines Impacted (%), LC50, CNS (CNS cancer cell lines [9]): 20%
Total Impacted Cell Lines (n), LC50, Renal (renal cancer cell lines): 2
Percent of Cell Lines Impacted (%), LC50, Renal (renal cancer cell lines): 25%
Percent of Cell Lines Impacted (%), GI50 (NCI-60 cancer cell lines [10]): 100%
Percent of Cell Lines Impacted (%), LC50 (NCI-60 cancer cell lines [10]): 16%
Percent of Cell Lines Impacted (%), TGI (NCI-60 cancer cell lines [10]): 56%
Total Impacted Cell Lines (n), TGI (NCI-60 cancer cell lines [10]): 32
Average Concentration (M), TGI (NCI-60 cancer cell lines [10]): 8.49e-07 M
CC50 (CNS cancer cell lines [11]): 1.38e-05 M

Compound: CCCCCCCC(=O)SCC/C=C/[C@@H]1CC(=O)NCc2nc(cs2)C2=N[C@@](C)(CS2)C(=O)N[C@@H](C(C)C)C(=O)N1 [compound of formula aa]
Total Impacted Cell Lines (n), LC50, Colon (colon cancer cell lines [4]): 3
Percent of Cell Lines Impacted (%), LC50, Colon (colon cancer cell lines [4]): 43%
CC50 (melanoma cell lines [5]): 6.52e-06 M
GI50 (NCI-60 cancer cell lines [6]; [13]): 6.56e-07 M
Total Impacted Cell Lines (n), LC50, Melanoma (melanoma cell lines [7]): 2
Percent of Cell Lines Impacted (%), LC50, Melanoma (melanoma cell lines [7]): 25%
CC50 (colon cancer cell lines [8]): 9.45e-06 M
Total Impacted Cell Lines (n), LC50, CNS (CNS cancer cell lines [9]): 2
Percent of Cell Lines Impacted (%), LC50, CNS (CNS cancer cell lines [9]): 33%
Total Impacted Cell Lines (n), LC50, Renal (renal cancer cell lines): 2
Percent of Cell Lines Impacted (%), LC50, Renal (renal cancer cell lines): 25%
Percent of Cell Lines Impacted (%), GI50 (NCI-60 cancer cell lines [10]): 100%
Percent of Cell Lines Impacted (%), LC50 (NCI-60 cancer cell lines [10]): 17%
Percent of Cell Lines Impacted (%), TGI (NCI-60 cancer cell lines [10]): 64%
Total Impacted Cell Lines (n), TGI (NCI-60 cancer cell lines [10]): 37
Average Concentration (M), TGI (NCI-60 cancer cell lines [10]): 1.31e-05 M
Total Impacted Cell Lines (n), LC50, Ovarian [12]: 1
Percent of Cell Lines Impacted (%), LC50, Ovarian ([12]; five-dose): 14%
CC50 (CNS cancer cell lines [11]): 7.17e-06 M
